Data: patent US5098925A, “Spiro-dihydroisoindole compounds” (ICI Americas Inc., priority 1990, dated 1992)

Assays:
[1] = biological target: phencyclidine (PCP) receptor of the NMDA receptor complex; assay: [3H]-TCP binding (displacement of specific [3H]TCP binding); parameters: species or system Sprague-Dawley rats; settings: [3H]-TCP 2.5 nM; rat cortex/hippocampus synaptic membranes; 30 min, 37° C., pH 7.7; read-out: IC50 value, 50% inhibition of total specific [3H]TCP binding
Description: The actions of compounds of formula I as an antagonist at the phencyclidine (PCP) receptor of the NMDA receptor complex can be shown using known in vitro tests, for example that described in Vignon et al., Brain Research, 280, 194-197 (1983). Vignon et al. disclose that tritiated N-(1-[2-thienyl]cyclohexyl)-3,4-[^3 H]-piperidine (also abbreviated as [^3 H]-TCP) binds to PCP binding sites (e.g. in rat brains) more strongly than PCP itself. […] [^3 H]-TCP thus provides a useful tool for measuring the binding affinities of compounds which bind to PCP receptors such as the PCP site in the NMDA receptor complex.
Specifically when it is desired to measure the binding affinity of a compound of formula I, a source of (brain) NMDA receptors is generated by preparing neuronal synaptic membranes from adult Sprague-Dawley rats. In brief, freshly dissected cortices and hippocampi were homogenized in 0.32 M sucrose (100 mg/ml). […]
The procedure for [^3 H]-TCP binding is adapted from Vignon et al. (1983). […] Non-specific binding is determined with 100 μM MK-801, a […] well known and characterized in the art as set forth for example, in European Patent Application 0 230 370, published July 29, 1987. […] Radioactivity is measured by liquid scintillation counting. The specific activity of the [^3 H]TCP is used to convert the radioactivity measured to concentration [^3 H]TCP bound. […]

[2] = tested on: neuronal damage in the hippocampus; assay: gerbil ischemic model (bilateral carotid occlusion, neuronal damage in the hippocampus); type: in vivo, Mongolian gerbils; settings: ip dose of 60 mg/kg
Description: Typically an animal is rendered ischemic, for example, for transient occlusion of the carotid artery. A test compound is then administered to said ischemic animal at or about the time of the ischemica event. The ability of the test compound to reduce or prevent neurological degeneration may then be assessed, for example, by sacrificing the animal, followed by conventional histological examination of suitable brain tissue. For example, the following is a description of a suitable test in vivo using the gerbil model.
When testing in vivo using the gerbil ischemic model, adult female Mongolian gerbils (50-70 g) are anesthetized with 2 to 3% halothane. The bilateral common carotid arteries at the neck are exposed and occluded with microaneurysm clips. After 10 min (unless specified), the clips are removed and the blood flow through the carotid arteries is restored and the skin is sutured. […] Gross behavioral observations along with motor activity are recorded for 2 hr on the first (24 hr) day following the occlusion. […]
Sections (7 micron) are evaluated from each brain. […] The average brain damage rating score for each group is recorded, and the damage scores of the drug treated group are compared to the vehicle-treated group using Wilcoxcon ranks sum test.

Compound: COc1cccc2c1CCC21NCc2ccccc21 (stereo not shown) [Example 18, 4-Methoxyspiro[indan-1,1'-(1,3-dihydroisoindole)]]
- IC50 [1]: 5 µM

Compound: c1ccc2c(c1)CNC21CCCc2sccc21 (stereo not shown) [Example 20, Spiro[4,5,6,7-tetrahydrobenzothiophene-4,1'-(1,3-dihydroisoindole)]]
- IC50 [1]: 0.6 µM

Compound: CN1Cc2ccccc2C12CCCc1sccc12 (stereo not shown) [Example 21, 2'-Methylspiro[4,5,6,7-tetrahydrobenzothiophene-4,1'-(1,3-dihydroisoindole)]]
- neuroprotective effect [2]: significant neuroprotective effect
- overt toxic effects [2]: without any overt toxic effects
